These results are taken from patent publication US8980842B2, “Contraceptive peptides derived from the venom of the spider Latrodectus mirabilis, nucleotide sequences to transform a microorganism to produce said peptides; methods to obtain the peptides; pharmaceutical compositions containing thereof and use thereof” (Universidad de la Frontera, priority 2010, dated 2015).

Assay [1] concerns human spermatozoa. In words: Sperm motility (immobilizing effect) assay in selected human spermatozoa (swim up). The assay is classed as cell-based. The method, then: The spermicidal effect of the wild-type peptide and the constructed analog was assayed by assessing the sperm motility in human spermatozoa. For this, 15 mL of HTF-0.1% BSA medium (0.02 g BSA in 20 mL HTF) and 3 mL of HTF-1% BSA medium (0.04 g BSA in 4 mL HTF) were placed in an assay tube and incubated at 37° C. Subsequently, a sample of 2.6 mL of human semen was incubated during 25 minutes until liquefaction. Once liquefied, the sample was divided into 3 15-mL conical tubes with 2 mL of warm HTF-0.1% BSA in each tube. 860 μL of liquefied semen were vertically added to the bottom of each tube, gently pipetting to homogenize the mixture avoiding the formation of bubbles. Large clots were removed. Subsequently, the sample was centrifuged for 8 minutes at 1,800 rpm and the supernatant was discarded by touching only the surface of the medium with the pipette tip just on the tube walls and pipetting out the liquid. […] Then, spermatozoa were counted, reaching values around 10 million of selected spermatozoa per mL (10×10^6/mL). Different concentrations of the total venom and the different venom fractions obtained in the chromatographic purification, as well as the constructed analog peptide, were applied to samples of the spermatozoid previously selected and counted and were incubated in HTF medium for 45 minutes at 37° C. […]

Assay [2] has as its system human spermatozoa. In words: Hamster oocyte penetration assay (Yanagimachi et al. 1976), fertilizing capacity of human spermatozoa. The assay is classed as cell-based. To be noted: agent at its IC50 from the sperm motility curve; n=15 oocytes per group; versus control. The method, then: The decrease of the fertilizing capacity of human spermatozoa was assayed using penetration assays in hamster oocytes according to the protocol initially described by Yanagimachi et al. (1976). Briefly, golden hamster oocytes were collected; their […] was removed, and oocytes were subsequently incubated with previously capacitated human spermatozoa at a concentration of 10^7 spermatozoa/ml. The incubation was prolonged for 3-6 hours. […] The oocytes were observed using phase contrast microscopy and were only considered to have been penetrated by spermatozoa when they contained a head in decondensation stage or a male pronucleus inside their cytoplasm.

In the case of “20-amino acid linear analog of the venom peptide, cysteine 43 replaced by alanine; SLAKTNCFTTEYFQHCVKDL [Ac-[Ala^43]-ATX41-60-NH2]”, the “spermatozoids affected at maximal doses” value in assay [1] (maximal doses (FIG. 2)) is reported as 100%. Moreover, the “IC50 of the immobilizing effect (spermatozoa with no progressive linear movement)” value in assay [1] (selected human spermatozoa (swim up), incubated 45 minutes in HTF medium, 37° C.) worked out at 39.81 µg/mL. Further, the “decrease in the fertilizing capacity of spermatozoa” value in assay [2] turned out to be 82±0.3%.
